Results: PMC4841536, “Characterization of the Anti-HCV Activities of the New Cyclophilin Inhibitor STG-175” (PLoS ONE, 2016)
Where two headings read alike, the source gives them in different places.

What was measured:
[1] = alamarBlue cytotoxicity (CC50), GT4a replicon cell line; settings: human
Experimental: The anti-HCV activity of STG-175 was conducted using a panel of luciferase reporter replicon cell lines including GT1a, GT1b, GT2a, GT3a and GT4a as we described previously. The GT1a subgenomic renilla luciferase reporter replicon H77 RLucP (7) was supplied by Dr. Delaney. The GT1b subgenomic firefly luciferase reporter replicon pFK-I389/NS3-3’ [29] was supplied by Dr. Bartenschlager. The GT1B subgenomic NS3, NS5A and NS5B mutants were created via homologous recombination using the In-Fusion HD Cloning kit (Clontech) as we described previously. The GT2a genomic luciferase reporter replicon Luc-Neo-JFH-1 was generated as previously. The plasmid pFK-Luc-JFH1 was supplied from Drs. […] The CellTiter-Fluor™ Cell Viability Assay is a non-lytic fluorescence assay, which measures the number of live cells. […] Luciferase activity was determined using the Luciferase Assay System (Promega) in a Berthold luminometer. […] Viable cells continuously convert resazurin to resorufin, increasing the overall fluorescence and color of the media surrounding cells.
Fig 2 Anti-HCV activities of STG-175 among GTs. […] Luciferase activity was determined using the Luciferase Assay System in a Berthold luminometer. […] Data are expressed as mean of relative light units and calculated EC50s are presented. […]

[2] = test system: HIV-1 in mixed PBMCs, NTCP-Huh7 and Huh7.5.1 cells; assay: Dual/triple co-infection in cell co-cultures, HIV-1 readout; format: cell-based
[3] = test system: HCV in mixed PBMCs, NTCP-Huh7 and Huh7.5.1 cells; assay: Dual/triple co-infection in cell co-cultures, HCV readout; format: cell-based, hepatitis C virus
[4] = test system: subgenomic Con1 (GT1b) replicon in Huh-7 cells; format: cell-based, hepatitis C virus; settings: for passage at which resistant variants emerged (CypI comparison): Fig 3C
Experimental: Huh-7 cell expressing subgenomic Con1 (GT1b) replicon were seeded in a 10 cm dish at a density of 3 × 10^5 cells per culture flask in complete DMEM (with G418) with STG-175 or selected drugs. Cells were grown until they reached 90% confluence, trypsinized and re-seeded at the same cell concentration in a new 10-cm dish with the same drug concentration. Cells were passaged 22 times in the presence of drugs. At each passage, sample of cells were collected, RNA extracted according to the manufacturer's instructions and analyzed by RT-PCR for HCV RNA levels.
Fig 3 Replicon clearance, replication rebound and resistance analyses. […] Then drugs were removed to allow viral replication rebound to occur. At each passage, samples of cells were collected, RNA extracted and analyzed by RT-PCR for HCV RNA levels. B. Emergence of resistance: Con1 replicon Huh-7 cells were passaged 22 times in the absence or presence of STG-175 or selected DAAs. At each passage, sample of cells were collected, RNA extracted and analyzed by RT-PCR for HCV RNA levels. C. […] Data are expressed as number of HCV RNA copies per cell. […] Data are expressed as mean of relative light units and calculated EC50s are presented. […] E. Degree of resistance of D320E and Y321N Con1 variants: Left panel. Wild-type (WT), D320E and D320/Y321N NS5A Con1 RNA were electroporated into Huh7.5.1 cells and replication monitored over 8 days by quantifying the levels of intracellular HCV RNA. Right panel. Same as just above except that increasing concentrations of STG-175 were added at the time of the electroporation. […] STG-175 is taken as the substance from the printed x-axis title 'STG-175 in Log nM'.
We then examined the development of resistance to STG-175. GT1b Con1 sub-genomic replicon cells were grown in the presence of STG-175 (0.25 and 1 μM), telaprevir (2.5 and 10 μM), boceprevir (2.5 and 10 μM), daclatasvir 100 pM and 1 nM) or a combination of STG-175 (0.25 μM) with either telaprevir (2.5 μM), boceprevir (2.5 μM) or daclatasvir (100 pM) for 22 successive passages. At each passage, fresh drug was added and a sample of cells was taken to quantify HCV RNA levels by RT-qPCR.

[5] = STG-175 added together with virus
[6] = added 3 days post-infection and then every 3 days

CC=CCC(C)C(O)C1C(=O)NC(CC)C(=O)N(C)C(CSCCCCO)C(=O)N(C)C(CC(C)(C)O)C(=O)NC(C(C)C)C(=O)N(C)C(CC(C)C)C(=O)NC(C)C(=O)NC(C)C(=O)N(C)C(CC(C)C)C(=O)N(C)C(CC(C)C)C(=O)N(C)C(C(C)C)C(=O)N1C (stereo not drawn) [STG-175]
CC50 at 72 h [1]: > 10 µM | HIV-1 infection in co-infection [2, 5]: totally blocked | established HIV-1 infection in co-infection [2, 6]: almost totally aborted | HCV infection in co-infection [3, 5]: totally blocked | pre-established HCV infection in co-infection [3, 6]: totally eradicated | cell culture passages required to detect emergence of resistant replicon colonies [4]: > 16 passages | passage at which resistant variants emerged (CypI comparison) ([4]; 0.25 μM of drug selection): 18 passage | passage at which resistance began ([4]; 1 μM drug pressure, first account (Fig 3B)): 19 passage | passage at which resistant variants emerged (CypI comparison) ([4]; 1 μM of drug selection): 21 passage
